The values that follow come from patent US12692278B2, “Synthesis methods and compositions of low intermediate and low dichelate intermediate contrast agents” (priority 2021, dated 2026).

“And” between values parts separate entries of the source, which are not always exact repeats. Equal entries are not always repeated. A value given as a limit tells only on which side of the number the result lay.

Common to all, as to format: physicochemical
The nature of data set [1]: pH controlled synthesis, free Gd versus synthesis time. The protocol: Here, Example 1A is modified by the addition of gadolinim oxide in its entirety at first and immediately after the introduction of the DOTA, and this procedure is used to produce batch A of Gd-DOTA. Batch B is produced using the following modified procedure.
• 1. Heat reactor to 95° C. • 2. Charge water with all of gadolinium oxide • 3. Stir (stir unless otherwise indicated, nominal rate 300 rpm) until the solution is clear • 4. Add sufficient DOTA to obtain a pH of 4 • 5. When pH is >5 charge sufficient DOTA to reach pH of 4 • 6. Stir until uniformly distributed in the water, and clear • 7. If pH<4, then go to step 9 • 8. Go to step 4 • 9. Divide remaining portion of DOTA into 5 parts • 10. Add 1 part of remaining DOTA • 11. Stir until uniformly distributed in the water, and clear • 12. If DOTA remains to be added go to step 10 • 13. Continue to cook for a total of 12 hours Results

The nature of data set [2]: Effect of solvent (ethanol) on intermediate formation and destabilization of stable complex. To be noted: mixed with 10% v-v ethanol, ethanol evaporated 12 hrs. As for the experimental part:
At each time step, samples were mixed with 10% v-v ethanol. The ethanol was driven from the sample by evaporation (heating under vacuum) for 12 hrs. Free Gadolinium was determined by using the spectrometric xylenol orange technique described in previous studies.
At each time step, samples were mixed with 10% v-v ethanol. The ethanol was driven from the sample by evaporation (heating under vacuum) for 12 hrs. Free Gadolinium was determined by using the improved spectrometric xylenol orange technique described in previous studies.

A short description of data set [3]: Free gadolinium as a function of synthesis time, spectrometric xylenol orange. To be noted: for Free Gd, titrated with meglumine to pH 7.0: after 32 hrs synthesis. As for the experimental part:
Once the reference solution is prepared, then product runs can be indexed against this standard. • 23. An improvement over earlier methods involves in-line or batch sample monitoring of metastable intermediate presence. For example, the monitoring can be by Fourier Transform Infrared Spectroscopy, High Performance Liquid Chromatography, Ultra High Performance Liquid Chromatography, or Trans-metalation reaction. The reactant can be titrated with a strong acid (0.1 M HCl) and the free Gd3+ ion quantified by the improved xylenol orange titration according to the present disclosure. The metastable intermediate will release free Gd3+ more quickly than fully complexed Gd-DOTA. The presence of multiple metastable intermediate forms can be detected by dynamic titration over the span of an hour or more, and calculating the Gd3+ ion as a function of time. • 24. In addition, the relative kinetic stability of a Gd-DOTA complex is accessed by exposing the solution to phosphate anions at physiological pH. Even chelates with very high thermodynamic stability constants will equilibrate to form some free chelate and non-chelated gadolinium. Since gadolinium phosphate is insoluble, any non-chelated gadolinium will precipitate as insoluble gadolinium phosphate, and the free Gd3+ ion can be quantified by weighing the precipitate. Verify Complex Formation • 25. Verify absence of free gadolinium using Xylenol orange • 26. If free gadolinium detected, add X DOTA, raise temperature to 95+1-2° C., stir for 1 hr and proceed to step 16 • 27. If not, proceed to step 23 Preparation of Gadoteric Acid Meglumine Solution • 28. Add 90% of the meglumine at 40-45° C. • 29. Sir 10 minutes • 30. Measure pH—in-line probe calibrated to 25° C. (USP) • 31. If pH is >7.5, discard • 32. If pH is between 7.0 and 7.5, then go to step 29 • 33. If pH<than 7.0, add 2% of the Meglumine, go to step 24 • 34. Stir for 1 hr at 40-45° C. • 35. Check solution is clear, if yes proceed to 31, if not repeat 29 Gadoteric Acid Meglumine Solution Filtration • 36. Cool the solution to 20-25° C. • 37. Filter the solution using the carbon filter • 38. Rinse the reactor with 20-25° C. water using ¼ V • 39. Pass rinse through the filter • 40. Repeat rinse steps 33 & 34 for a total of 2 rinses • 41. Place filtrate and rinses back in reactor • 42. Stir at 25-30° C. for 10 min • 43. Measure Free DOTA by HPLC • 44. If Free DOTA is 0.01-0.06% ww proceed to 42 • 45. If Free DOTA<0.01% ww, add 0.03% ww equivalent of DOTA • 46. Stir for ½ hr and go to step 38 • 47. Measure pH—in-line probe calibrated to 25° C. (USP) • 48. If pH is between 7.0 and 7.5, then go to step 45 • 49. If pH<7.0, add meglumine. Stir 10 min. Go to step 42. • 50. Stir ½ hr. • 51. Check solution is clear, if yes proceed to 47, if not repeat 45 Verify Purity • 52. Measure Purity by HPLC • 53. If individual impurity>0.05%, go to step 32 Final API Adjustments • 54. Measure Free DOTA by HPLC • 55. If Free DOTA>0.06% ww, repeat steps 32-42 • 56. If Free DOTA is 0.01-0.06% ww proceed to 55 • 57. If Free DOTA<0.01% ww, add 0.03% ww equivalent of DOTA • 58. Stir ½ hr • 59. Go to Step 49 • 60. Measure pH • 61. If pH is 7.0-7.5, then go to step 53 • 62. If pH<7.0, add Meglumine. Stir 10 min. Go to step 55 Final API Testing • 63. Perform full API testing: Gadolinium content; Meglumine Content; Assay; Water Content; Heavy Metals Free Gadolinium as a Function of Synthesis Time Using the Method of Example 1A.
Free Gadolinium was determined by using the spectrometric xylenol orange technique described in previous studies.
Free Gadolinium as a Function of Synthesis Time Using the Method of Example 1.
Free Gadolinium was determined by using the improved spectrometric xylenol orange technique described in previous studies.

Data set [4] can be described thus: Metastable intermediates as a function of reaction time. The protocol: • 1. Heat reactor to 25-30° C. • 2. Charge water with DOTA • 3. Begin stirring (stir unless otherwise indicated, nominal rate 300 rpm) • 4. Charge 10% of the DOTA • 5. Stir until uniformly distributed in the water • 6. If all the DOTA is charged, then go to step 8 • 7. Go to step 4 • 8. Stir 10 min Preparation of Gadolinium: DOTA Complex • 9. Charge 25% by weight of the Gadolinium oxide • 10. Stir until uniformly distributed • 11. If all the Gadolinium oxide is charged then go to step 13 • 12. Go to step 9 • 13. Stir 10 min • 14. Raise temperature to 95+/−2° C. • 15. Stir 3 hrs. • 16. Check clarity • 17. If not clear continue for 1 hr, go to step 16 (this step took about 12 hours) • 18. If clear, continue 1 hr and then cool to 40-45° C. • 19. If precipitate forms, heat to 95+/−2° C. and stir for 1 hr, go to step 16 Verify Gd-Dota is Free of Metastable Intermediates • 20. A standard metastable-free Gd-DOTA reference solution is obtained by taking 5 ml of reactant obtained from steps 1-19 and diluting to a 0.2 mM Gd-DOTA solution. One measures the metastable intermediate content after synthesis for 5, 10, 15, 20, 25, 30, and 35 hours, or until the concentration of the metastable intermediate asymptotes as close to zero as possible. • 21. […] The output from a copper vapor laser tuned to 578.2 nm (Oxford Lasers, Didcot, United Kingdom) is directed through the reactant and the excitation spectrum obtained at 578.2 nm. Baseline is established by directing the laser through the quartz vessel filled with distilled water.
Stoichiometric ratios of gadolinium oxide were reacted with DOTA according to the procedure outlined in Example 1. Measurements were taken (N=1) to conserve volume. The final measurement was performed 5 times.

A short description of data set [5]: Feasibility of cation exchange (sodium polystyrene sulfonate), free Gd3+ by xylenol orange. The settings on record: stoichiometric sodium polystyrene sulfonate, room temperature, N = 5. As for the experimental part: Feasibility of cation exchange as a method of making Gd-DOTA with low metastable intermediates
Using sodium polystyrene sulfonate, rather than the polymer described above.
Ten samples were stored at room temperature with a stoichiometric amount of sodium polystyrene sulfonate.
Samples were tested using the improved spectrometric xylenol orange method.

Data set [6] is described as follows: Feasibility of excess DTPA, free Gd3+ by xylenol orange. The settings on record: stoichiometric DTPA, room temperature, 24 hours. As for the experimental part: The metastable intermediate concentration is determined by Example 3, and associated methods described in the present application. A Gd-DOTA synthesis containing metastable intermediates is heated to 95° C. in the presence of a stoichiometric amount of DTPA sufficient to consume all the metastable intermediates. The presence of metastable intermediates can be measured as a function of time. The reaction is continued until a desired metastable intermediate content is obtained. Depending on the amount of free DOTA thus liberated, the free DOTA can be reacted with a positively charged resin, as is known in the art. Alternatively, the free DOTA may serve as a buffer against free Gd3+ formation, as is permitted in some drug formulations. Ten samples were prepared by adding stoichiometric amounts of DTPA to counter the excess Gd3+ and stored at room temperature for 24 hours. Samples were tested using the improved spectrometric xylenol orange method.

For `O=C([O-])CN1CCN(CC(=O)[O-])CCN(CC(=O)O)CCN(CC(=O)[O-])CC1.[Gd+3]` [Batch A, Gd-DOTA], the entries for the “Free Gd” value in data set [1] (synthesis time 4 hrs), in data set [1] (synthesis time 8 hrs) and in data set [1] (synthesis time 12 hrs) were 15,036 +/− 12.8 ppm, 4,947 +/− 9.9 ppm and 1,792 +/− 10.5 ppm, respectively.

Consider `O=C([O-])CN1CCN(CC(=O)[O-])CCN(CC(=O)O)CCN(CC(=O)[O-])CC1.[Gd+3]` [Batch B, Gd-DOTA], for which the “Free Gd” value in data set [1] (synthesis time 4 hrs) is recorded as 19,276 +/− 6.3 ppm; in data set [1] (synthesis time 8 hrs), 2,793 +/− 7.1 ppm; in data set [1] (synthesis time 12 hrs), 377 +/− 5.2 ppm.

In the case of `O=C([O-])CN1CCN(CC(=O)[O-])CCN(CC(=O)O)CCN(CC(=O)[O-])CC1.[Gd+3]` [Example 1A, Gd-DOTA], the “Free Gd” value in data set [2] (synthesis time 4 hrs) is 71,830 ppm; in data set [2] (synthesis time 8 hrs), 7,044 ppm; in data set [2] (synthesis time 12 hrs), 2,146 ppm; in data set [2] (synthesis time 16 hrs), 957 ppm; in data set [2] (synthesis time 20 hrs), 401 ppm; in data set [2] (synthesis time 24 hrs), 147 ppm. The “Free Gd” value in data set [2] (synthesis time 28 hrs) was 92 ppm; in data set [2] (synthesis time 32 hrs), 56 (compare to 0.77 without solvents) ppm; in data set [3] (synthesis time 4 hrs), 17,467 +/− 9.4 ppm; in data set [3] (synthesis time 8 hrs), 3,448 +/− 8.9 ppm; in data set [3] (synthesis time 12 hrs), 803 ppm and 803 +/− 8.1 ppm; in data set [3] (synthesis time 16 hrs), 509 +/− 4.2 ppm. Besides, the “Free Gd” value in data set [3] (synthesis time 20 hrs) is on record as 63.6 +/− 9.7 ppm; in data set [3] (synthesis time 24 hrs), 31.0 +/− 2.1 ppm; in data set [3] (synthesis time 28 hrs) it was 1.2 +/− 0.72 ppm; in data set [3] (synthesis time 32 hrs) it was 0.25 +/− 0.67 ppm. In addition, the “Free Gd, titrated with meglumine to pH 7.0” value in data set [3] was 0.77+/−0.92 ppm.

As for `O=C([O-])CN1CCN(CC(=O)[O-])CCN(CC(=O)O)CCN(CC(=O)[O-])CC1.[Gd+3]` [Example 1B, Gd-DOTA], the “Free Gd” value in data set [2] (synthesis time 4 hrs) is on record as 71,830 ppm; in data set [2] (synthesis time 8 hrs) it was 7,044 ppm; in data set [2] (synthesis time 12 hrs), 2,146 ppm; in data set [2] (synthesis time 16 hrs) it was 957 ppm; in data set [2] (synthesis time 20 hrs), 401 ppm; in data set [2] (synthesis time 24 hrs) it was 147 ppm. Moreover, the “Free Gd” value in data set [2] (synthesis time 28 hrs) is 92 ppm; in data set [2] (synthesis time 32 hrs), 56 (compare to 0.77 without solvents) ppm; in data set [3] (synthesis time 4 hrs), 17,467 +/− 9.4 ppm; in data set [3] (synthesis time 8 hrs) it was 3,448 +/− 8.9 ppm; in data set [3] (synthesis time 12 hrs), 803 ppm and 803 +/− 8.1 ppm; in data set [3] (synthesis time 16 hrs), 509 +/− 4.2 ppm. Moreover, the “Free Gd” value in data set [3] (synthesis time 20 hrs) is reported as 63.6 +/− 9.7 ppm; in data set [3] (synthesis time 24 hrs), 31.0 +/− 2.1 ppm; in data set [3] (synthesis time 28 hrs), 1.2 +/− 0.72 ppm; in data set [3] (synthesis time 32 hrs), 0.25 +/− 0.67 ppm. Further, the “Free Gd, titrated with meglumine to pH 7.0” value in data set [3] was 0.77+/−0.92 ppm.

Turning to `O=C([O-])CN1CCN(CC(=O)[O-])CCN(CC(=O)O)CCN(CC(=O)[O-])CC1.[Gd+3]` [Example 5, Gd-DOTA], the “Metastable Intermediates” value is 28,094 +/− 9.7 ppm in data set [4] (3 hours of reaction), 3,853 +/− 12.4 ppm in data set [4] (8 hours of reaction), 72 +/− 5.0 ppm in data set [4] (24 hours of reaction) and 0.8 +/− 1.3 ppm in data set [4] (32 hours of reaction). Also, the “Metastable Intermediates after titration with meglumine to pH 7.0” value in data set [4] (after 32 hours of reaction, unit not given) is listed as 1.2 +/− 3.8.

On to Gd-DOTA [Example 6], for which the “Free Gd3+ after samples treated” value in data set [5] (24 hrs) was 685 +/− 9.4; in data set [5] (48 hrs), 292 +/− 15.2; in data set [5] (96 hrs), 8.9 +/− 8.5.

Turning to Gd-DOTA [Example 7], the “Gd3+ after samples treated with DTPA, range (upper value, down to undetectable)” value in data set [6] was ≤ 27.6 ppm. The “Gd3+ after samples treated with DTPA” value in data set [6] (N=5) is reported as 14.8+/−11.6 ppm.
